# Where two headings read alike, the source gives them in different places.
# Columns and labels:
# airway inflammation = details: murine model; cited from earlier work
# [1] = system: human ciliated sinonasal air-liquid-interface (ALI) cells
# nitric oxide (NO) = assay: NO production after nasal instillation in ferrets (nasal wash); assay type: in vivo, ferret
# [2] = system: human H1N1 influenza A strain PR8; assay type: cell-based; details: 0.1% quinine in 0.9% sodium chloride from 1 h post infection, daily, 72 hrs
# [3] = system: SARS-CoV-2 (UPenn/Philadelphia strain); assay: Human sinonasal ALI infection with SARS-CoV-2, nucleocapsid staining and quantitative fluorescence imaging; details: 1 mg/mL quinine sulfate, 48 hrs; average of two measurements
structure (smiles),measurement,setting,value
C=C[C@H]1C[N@@]2CC[C@H]1C[C@H]2[C@H](O)c1ccnc2ccc(OC)cc12 [quinine],"airway inflammation (BAL, histology, PFTs)",airway inflammation,reduce airway inflammation
same,cell viability,[1],remained viable and visually healthy
same,NO in nasal wash,nitric oxide (NO); 5 min after 200 μL of 1 mg/mL solution intranasal,6.64 ng/mL
same,NO in nasal wash,nitric oxide (NO); 10 min after 200 μL of 1 mg/mL solution intranasal,6.42 ng/mL
same,NO in nasal wash,nitric oxide (NO); 15 min after 200 μL of 1 mg/mL solution intranasal,6.52 ng/mL
same,transcripts for both the NP and IAV-M genes,"[2]; subject A cells, MOI of 1",lesser relative reduction
same,transcripts for both the NP and IAV-M genes,[2]; subject B (more mature) ALI culture,marked relative reduction
same,Quinine Rx (% infected),[3],2.32%

# Source: patent US20230144186A1 (The Trustees of the University of Pennsylvania, priority 2020, published 2023)
